Results as given in PubChem BioAssay AID434974 (The Scripps Research Institute Molecular Screening Center, 2010).
The source made the active and inactive calls. The rule behind the calls is not given here.

How the values were obtained:
Test in all cases: off-target binding across PDSP receptor panel, profiling panel, selectivity assay for NOX1 inhibitor project, biochemical, radioligand binding (AID 434974)
Cannabinoid receptor CB1 = settings: receptor displacement, at 10 µM, active compounds read high
Serotonin receptor 5ht3 = settings: receptor displacement, at 10 µM, active compounds read high
Nicotinic receptor A3B4 = settings: receptor displacement, at 10 µM, active compounds read high
[1] = tested on: Adrenergic receptor Alpha1D; settings: receptor displacement, at 10 µM, active compounds read high
[2] = tested on: Biogenic amine transporter DAT; settings: receptor displacement, at 10 µM, active compounds read high
Serotonin receptor 5ht2c = settings: receptor displacement, at 10 µM, active compounds read high
Serotonin receptor 5ht6 = settings: receptor displacement, at 10 µM, active compounds read high
[3] = tested on: Adrenergic receptor Alpha1A; settings: receptor displacement, at 10 µM, active compounds read high
Vasopressin receptor V1A = settings: receptor displacement, at 10 µM, active compounds read high
Dopamine receptor D2 = settings: receptor displacement, at 10 µM, active compounds read high
[4] = target: 5-hydroxytryptamine receptor 2B (Homo sapiens) (UniProt P41595); settings: receptor displacement, Serotonin receptor 5ht2b, at 10 µM, active compounds read high
[5] = tested on: Biogenic amine transporter SERT; settings: receptor displacement, at 10 µM, active compounds read high
GABA receptor PBR = settings: receptor displacement, at 10 µM, active compounds read high
[6] = target: D(1A) dopamine receptor (Homo sapiens) (UniProt P21728); settings: receptor displacement, Dopamine receptor D1, at 10 µM, active compounds read high
Sequence of D(1A) dopamine receptor (Homo sapiens) (P21728 whole entry, looked up): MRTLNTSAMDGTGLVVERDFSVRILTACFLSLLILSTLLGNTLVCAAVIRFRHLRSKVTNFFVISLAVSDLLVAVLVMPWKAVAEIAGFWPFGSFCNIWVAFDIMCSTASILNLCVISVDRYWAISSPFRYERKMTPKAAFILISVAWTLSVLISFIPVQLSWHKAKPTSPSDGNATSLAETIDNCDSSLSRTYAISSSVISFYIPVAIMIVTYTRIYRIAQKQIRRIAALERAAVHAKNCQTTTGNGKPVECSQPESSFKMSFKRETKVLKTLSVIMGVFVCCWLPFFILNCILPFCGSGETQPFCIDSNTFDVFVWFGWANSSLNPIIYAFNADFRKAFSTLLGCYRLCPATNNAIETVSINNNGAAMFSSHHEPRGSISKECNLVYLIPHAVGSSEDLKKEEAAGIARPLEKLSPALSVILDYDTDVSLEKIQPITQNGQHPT

[7] = tested on: Prostaglandin receptor EP3; settings: receptor displacement, at 10 µM, active compounds read high
[8] = target: D(1B) dopamine receptor (Homo sapiens) (UniProt P21918); settings: receptor displacement, Dopamine receptor D5, at 10 µM, active compounds read high
[9] = target: Delta-type opioid receptor (Homo sapiens) (UniProt P41143); settings: receptor displacement, Opioid receptor DOR, at 10 µM, active compounds read high
[10] = target: D(3) dopamine receptor (Homo sapiens) (UniProt P35462); settings: receptor displacement, Dopamine receptor D3, at 10 µM, active compounds read high
Sequence of D(3) dopamine receptor (Homo sapiens) (P35462 whole entry, looked up): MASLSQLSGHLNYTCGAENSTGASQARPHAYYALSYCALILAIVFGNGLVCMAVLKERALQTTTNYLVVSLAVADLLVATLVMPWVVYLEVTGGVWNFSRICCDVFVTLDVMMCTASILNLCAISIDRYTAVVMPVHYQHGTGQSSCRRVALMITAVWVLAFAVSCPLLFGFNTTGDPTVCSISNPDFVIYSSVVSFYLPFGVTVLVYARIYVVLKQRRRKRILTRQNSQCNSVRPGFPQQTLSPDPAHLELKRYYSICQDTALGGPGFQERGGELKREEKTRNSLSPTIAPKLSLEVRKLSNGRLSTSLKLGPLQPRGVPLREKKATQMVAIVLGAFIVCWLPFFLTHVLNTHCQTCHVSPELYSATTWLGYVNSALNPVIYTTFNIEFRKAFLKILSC

Serotonin receptor 5ht7 = settings: receptor displacement, at 10 µM, active compounds read high
[11] = tested on: Adrenergic receptor Beta3; settings: receptor displacement, at 10 µM, active compounds read high
Muscarinic receptor M4 = settings: receptor displacement, at 10 µM, active compounds read high
[12] = target: Beta-2 adrenergic receptor (Homo sapiens) (UniProt P07550); settings: receptor displacement, Adrenergic receptor Beta2, at 10 µM, active compounds read high
Sequence of Beta-2 adrenergic receptor (Homo sapiens) (P07550 whole entry, looked up): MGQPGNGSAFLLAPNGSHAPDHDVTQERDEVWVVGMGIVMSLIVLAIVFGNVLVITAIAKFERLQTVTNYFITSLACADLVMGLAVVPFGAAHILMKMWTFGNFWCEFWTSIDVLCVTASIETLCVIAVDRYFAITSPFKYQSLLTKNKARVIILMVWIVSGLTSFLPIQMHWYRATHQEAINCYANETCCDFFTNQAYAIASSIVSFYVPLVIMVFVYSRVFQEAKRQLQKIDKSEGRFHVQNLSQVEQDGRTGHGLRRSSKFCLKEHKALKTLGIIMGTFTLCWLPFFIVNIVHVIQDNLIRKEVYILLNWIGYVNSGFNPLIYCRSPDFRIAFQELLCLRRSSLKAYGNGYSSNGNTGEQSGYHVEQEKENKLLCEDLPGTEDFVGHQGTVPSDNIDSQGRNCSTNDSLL

Sigma receptor 1 = settings: receptor displacement, at 10 µM, active compounds read high
[13] = tested on: Adrenergic receptor Beta1; settings: receptor displacement, at 10 µM, active compounds read high
Histamine receptor H4 = settings: receptor displacement, at 10 µM, active compounds read high
[14] = tested on: Glutamate receptor NMDA PCP site; settings: receptor displacement, at 10 µM, active compounds read high
Vasopressin receptor V1B = settings: receptor displacement, at 10 µM, active compounds read high
Serotonin receptor 5ht2a = settings: receptor displacement, at 10 µM, active compounds read high
[15] = tested on: Adrenergic receptor Alpha1B; settings: receptor displacement, at 10 µM, active compounds read high
Dopamine receptor D4 = settings: receptor displacement, at 10 µM, active compounds read high
Vasopressin receptor V2 = settings: receptor displacement, at 10 µM, active compounds read high
BZP Rat Brain Site = settings: receptor displacement, at 10 µM, active compounds read high
Nicotinic receptor A3B2 = settings: receptor displacement, at 10 µM, active compounds read high
[16] = target: Alpha-2C adrenergic receptor (Homo sapiens) (UniProt P18825); settings: receptor displacement, Adrenergic receptor Alpha2C, at 10 µM, active compounds read high
Sequence of Alpha-2C adrenergic receptor (Homo sapiens) (P18825 whole entry, looked up): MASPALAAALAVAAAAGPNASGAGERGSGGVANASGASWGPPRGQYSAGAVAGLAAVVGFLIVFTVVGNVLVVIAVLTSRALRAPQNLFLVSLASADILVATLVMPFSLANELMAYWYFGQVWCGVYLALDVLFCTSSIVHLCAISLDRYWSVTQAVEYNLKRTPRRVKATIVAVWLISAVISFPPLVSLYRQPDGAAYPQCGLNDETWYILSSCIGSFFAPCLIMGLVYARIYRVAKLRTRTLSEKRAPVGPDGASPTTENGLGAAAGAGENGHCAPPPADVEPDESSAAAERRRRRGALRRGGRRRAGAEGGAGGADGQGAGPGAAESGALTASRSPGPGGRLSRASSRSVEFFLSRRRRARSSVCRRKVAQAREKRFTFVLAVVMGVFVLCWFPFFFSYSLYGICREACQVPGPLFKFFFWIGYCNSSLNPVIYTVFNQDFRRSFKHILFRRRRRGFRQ

Serotonin receptor 5ht5a = settings: receptor displacement, at 10 µM, active compounds read high
[17] = target: Alpha-2B adrenergic receptor (Homo sapiens) (UniProt P18089); settings: receptor displacement, Adrenergic receptor Alpha2B, at 10 µM, active compounds read high
[18] = target: Cannabinoid receptor 2 (Homo sapiens) (UniProt P34972); settings: receptor displacement, Cannabinoid receptor CB2, at 10 µM, active compounds read high
Sequence of Cannabinoid receptor 2 (Homo sapiens) (P34972 whole entry, looked up): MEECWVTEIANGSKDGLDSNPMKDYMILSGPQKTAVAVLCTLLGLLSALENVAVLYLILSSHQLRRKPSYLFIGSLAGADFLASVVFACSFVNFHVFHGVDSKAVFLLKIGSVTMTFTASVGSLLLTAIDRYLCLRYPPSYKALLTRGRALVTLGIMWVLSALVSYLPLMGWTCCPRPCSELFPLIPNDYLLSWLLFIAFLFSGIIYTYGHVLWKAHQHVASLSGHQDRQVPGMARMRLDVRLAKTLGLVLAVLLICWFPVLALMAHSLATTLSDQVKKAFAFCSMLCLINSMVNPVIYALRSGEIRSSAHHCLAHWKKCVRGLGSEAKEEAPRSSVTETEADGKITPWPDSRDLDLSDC

Sigma receptor 2 = settings: receptor displacement, at 10 µM, active compounds read high
Histamine receptor H2 = settings: receptor displacement, at 10 µM, active compounds read high
[19] = target: Muscarinic acetylcholine receptor M3 (Homo sapiens) (UniProt P20309); settings: receptor displacement, at 10 µM, active compounds read high
Sequence of Muscarinic acetylcholine receptor M3 (Homo sapiens) (P20309 whole entry, looked up): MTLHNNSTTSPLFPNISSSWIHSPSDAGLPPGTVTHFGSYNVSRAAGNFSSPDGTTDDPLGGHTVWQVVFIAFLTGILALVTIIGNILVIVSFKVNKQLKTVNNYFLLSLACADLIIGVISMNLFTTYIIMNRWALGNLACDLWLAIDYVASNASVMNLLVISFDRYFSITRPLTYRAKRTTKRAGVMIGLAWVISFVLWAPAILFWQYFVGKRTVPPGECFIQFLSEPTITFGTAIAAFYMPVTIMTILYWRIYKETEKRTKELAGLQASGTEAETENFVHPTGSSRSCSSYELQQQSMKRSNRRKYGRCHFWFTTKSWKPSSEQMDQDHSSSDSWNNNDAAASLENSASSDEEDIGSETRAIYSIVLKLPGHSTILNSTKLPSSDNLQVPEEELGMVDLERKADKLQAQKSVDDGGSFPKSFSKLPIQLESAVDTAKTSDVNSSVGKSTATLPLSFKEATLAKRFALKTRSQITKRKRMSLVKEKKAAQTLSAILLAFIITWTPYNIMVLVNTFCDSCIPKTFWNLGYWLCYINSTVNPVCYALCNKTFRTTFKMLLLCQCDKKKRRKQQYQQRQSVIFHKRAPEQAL

Nicotinic receptor A4B2 = settings: receptor displacement, at 10 µM, active compounds read high
[20] = target: Alpha-2A adrenergic receptor (Homo sapiens) (UniProt P08913); settings: receptor displacement, Adrenergic receptor Alpha2A, at 10 µM, active compounds read high
Sequence of Alpha-2A adrenergic receptor (Homo sapiens) (P08913 whole entry, looked up): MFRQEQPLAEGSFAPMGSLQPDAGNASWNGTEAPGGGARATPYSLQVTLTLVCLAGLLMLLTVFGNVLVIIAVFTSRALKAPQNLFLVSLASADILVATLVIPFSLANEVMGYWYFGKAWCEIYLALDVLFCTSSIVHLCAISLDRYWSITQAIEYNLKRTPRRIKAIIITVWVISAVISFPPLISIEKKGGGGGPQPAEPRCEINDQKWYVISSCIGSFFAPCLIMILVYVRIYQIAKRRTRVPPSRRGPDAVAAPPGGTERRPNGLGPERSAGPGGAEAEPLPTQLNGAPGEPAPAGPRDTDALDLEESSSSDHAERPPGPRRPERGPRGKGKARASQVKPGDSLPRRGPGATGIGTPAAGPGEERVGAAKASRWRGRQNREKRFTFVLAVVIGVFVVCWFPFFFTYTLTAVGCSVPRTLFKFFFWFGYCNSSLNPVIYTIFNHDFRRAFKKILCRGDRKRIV

Serotonin receptor 5ht1a = settings: receptor displacement, at 10 µM, active compounds read high
Nicotinic receptor A2B4 = settings: receptor displacement, at 10 µM, active compounds read high
[21] = tested on: Biogenic amine transporter NET; settings: receptor displacement, at 10 µM, active compounds read high
Nicotinic receptor A4B4 = settings: receptor displacement, at 10 µM, active compounds read high
Ca+ Channel = settings: receptor displacement, at 10 µM, active compounds read high
[22] = target: Muscarinic acetylcholine receptor M1 (Homo sapiens) (UniProt P11229); settings: receptor displacement, at 10 µM, active compounds read high
Sequence of Muscarinic acetylcholine receptor M1 (Homo sapiens) (P11229 whole entry, looked up): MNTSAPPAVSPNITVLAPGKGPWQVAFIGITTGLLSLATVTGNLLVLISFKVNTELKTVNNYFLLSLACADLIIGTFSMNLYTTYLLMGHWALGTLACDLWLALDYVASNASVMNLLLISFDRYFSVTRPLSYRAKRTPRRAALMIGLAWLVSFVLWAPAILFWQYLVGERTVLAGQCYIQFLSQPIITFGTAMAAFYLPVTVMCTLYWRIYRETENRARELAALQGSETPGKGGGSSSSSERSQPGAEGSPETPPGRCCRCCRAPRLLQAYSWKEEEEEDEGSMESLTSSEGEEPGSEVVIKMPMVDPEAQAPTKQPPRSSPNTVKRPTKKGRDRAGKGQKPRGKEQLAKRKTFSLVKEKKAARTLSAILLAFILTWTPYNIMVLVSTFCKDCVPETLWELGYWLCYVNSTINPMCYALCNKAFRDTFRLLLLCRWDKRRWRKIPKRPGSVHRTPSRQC

GABA receptor GABAa a1 = settings: receptor displacement, at 10 µM, active compounds read high
Nicotinic receptor A2B2 = settings: receptor displacement, at 10 µM, active compounds read high
Serotonin receptor 5ht1e = settings: receptor displacement, at 10 µM, active compounds read high
Muscarinic receptor M5 = settings: receptor displacement, at 10 µM, active compounds read high
GABA receptor GABAa = settings: receptor displacement, at 10 µM, active compounds read high
Opioid receptor MOR = settings: receptor displacement, at 10 µM, active compounds read high
[23] = tested on: Prostaglandin receptor EP4; settings: receptor displacement, at 10 µM, active compounds read high
Serotonin receptor 5ht1d = settings: receptor displacement, at 10 µM, active compounds read high
[24] = target: Kappa-type opioid receptor (Homo sapiens) (UniProt P41145); settings: receptor displacement, Opioid receptor KOR, at 10 µM, active compounds read high
Sequence of Kappa-type opioid receptor (Homo sapiens) (P41145 whole entry, looked up): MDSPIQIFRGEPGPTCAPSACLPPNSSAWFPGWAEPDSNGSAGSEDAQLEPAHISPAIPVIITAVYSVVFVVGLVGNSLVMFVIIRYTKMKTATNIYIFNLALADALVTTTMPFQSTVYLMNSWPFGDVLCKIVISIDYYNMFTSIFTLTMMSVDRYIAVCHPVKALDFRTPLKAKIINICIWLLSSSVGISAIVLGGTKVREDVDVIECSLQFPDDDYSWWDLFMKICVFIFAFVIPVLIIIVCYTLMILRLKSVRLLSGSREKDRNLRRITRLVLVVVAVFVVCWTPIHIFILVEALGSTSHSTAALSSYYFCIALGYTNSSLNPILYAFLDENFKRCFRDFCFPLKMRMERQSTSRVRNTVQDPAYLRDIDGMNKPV

[25] = target: Oxytocin receptor (Homo sapiens) (UniProt P30559); settings: receptor displacement, at 10 µM, active compounds read high
Sequence of Oxytocin receptor (Homo sapiens) (P30559 whole entry, looked up): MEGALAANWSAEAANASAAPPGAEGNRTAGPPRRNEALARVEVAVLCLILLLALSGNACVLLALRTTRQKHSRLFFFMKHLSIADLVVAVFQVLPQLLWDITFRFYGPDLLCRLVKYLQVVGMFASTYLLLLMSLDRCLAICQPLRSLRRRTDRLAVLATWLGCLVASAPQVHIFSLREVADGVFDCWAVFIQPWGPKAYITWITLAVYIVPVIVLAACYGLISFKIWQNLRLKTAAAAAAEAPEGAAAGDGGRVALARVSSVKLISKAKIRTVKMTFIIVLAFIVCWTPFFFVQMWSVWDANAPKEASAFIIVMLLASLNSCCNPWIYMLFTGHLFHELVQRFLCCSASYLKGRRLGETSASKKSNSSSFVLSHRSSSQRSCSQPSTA

Histamine receptor H3 = settings: receptor displacement, at 10 µM, active compounds read high
Histamine receptor H1 = settings: receptor displacement, at 10 µM, active compounds read high
[26] = target: Muscarinic acetylcholine receptor M2 (Homo sapiens) (UniProt P08172); settings: receptor displacement, at 10 µM, active compounds read high
Sequence of Muscarinic acetylcholine receptor M2 (Homo sapiens) (P08172 whole entry, looked up): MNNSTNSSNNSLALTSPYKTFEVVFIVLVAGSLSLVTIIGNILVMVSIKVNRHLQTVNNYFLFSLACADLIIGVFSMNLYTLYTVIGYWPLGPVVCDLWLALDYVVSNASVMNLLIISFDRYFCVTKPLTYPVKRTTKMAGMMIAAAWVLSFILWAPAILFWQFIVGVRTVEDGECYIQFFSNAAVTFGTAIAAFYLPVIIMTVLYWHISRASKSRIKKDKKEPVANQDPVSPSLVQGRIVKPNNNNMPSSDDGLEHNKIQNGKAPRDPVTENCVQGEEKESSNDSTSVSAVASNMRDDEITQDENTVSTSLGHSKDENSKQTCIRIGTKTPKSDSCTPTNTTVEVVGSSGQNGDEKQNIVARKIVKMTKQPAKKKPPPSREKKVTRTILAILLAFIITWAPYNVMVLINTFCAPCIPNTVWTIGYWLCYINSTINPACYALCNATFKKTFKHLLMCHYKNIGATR

Serotonin receptor 5ht1b = settings: receptor displacement, at 10 µM, active compounds read high

inhibition (Cannabinoid receptor CB1): 5% (inactive) | inhibition (Serotonin receptor 5ht3): 1.4% (inactive) | inhibition (Nicotinic receptor A3B4): 0% (inactive) | inhibition [1]: 23.8% (inactive) | inhibition [2]: 16% (inactive) | inhibition (Serotonin receptor 5ht2c): 62.4% | inhibition (Serotonin receptor 5ht6): 30.8% (inactive) | inhibition [3]: 36.3% (inactive) | inhibition (Vasopressin receptor V1A): 4% (inactive) | inhibition (Dopamine receptor D2): 22.6% (inactive) | inhibition [4]: 84.3% | inhibition [5]: 16.4% (inactive) | inhibition (GABA receptor PBR): 32.1% (inactive) | inhibition [6]: 23.6% (inactive) | inhibition [7]: 0% (inactive) | inhibition [8]: 16.8% (inactive) | inhibition [9]: -0.5% (inactive) | inhibition [10]: 59.2% | inhibition (Serotonin receptor 5ht7): -5.7% (inactive) | inhibition [11]: 3.5% (inactive) | inhibition (Muscarinic receptor M4): 19.3% (inactive) | inhibition [12]: -0.9% (inactive) | inhibition (Sigma receptor 1): 50.1% | inhibition [13]: 23.5% (inactive) | inhibition (Histamine receptor H4): 10.1% (inactive) | inhibition [14]: 25% (inactive) | inhibition (Vasopressin receptor V1B): 8.9% (inactive) | inhibition (Serotonin receptor 5ht2a): 33.2% (inactive) | inhibition [15]: 38.4% (inactive) | inhibition (Dopamine receptor D4): 34.7% (inactive) | inhibition (Vasopressin receptor V2): -5.5% (inactive) | inhibition (BZP Rat Brain Site): 44.8% (inactive) | inhibition (Nicotinic receptor A3B2): 4% (inactive) | inhibition [16]: 98.2% | inhibition (Serotonin receptor 5ht5a): 45.6% (inactive) | inhibition [17]: 58.8% | inhibition [18]: 3.8% (inactive) | inhibition (Sigma receptor 2): 9% (inactive) | inhibition (Histamine receptor H2): 43% (inactive) | inhibition [19]: -5.8% (inactive) | inhibition (Nicotinic receptor A4B2): 1% (inactive) | inhibition [20]: 50.7% | inhibition (Serotonin receptor 5ht1a): 34.4% (inactive) | inhibition (Nicotinic receptor A2B4): 4% (inactive) | inhibition [21]: 60.5% | inhibition (Nicotinic receptor A4B4): 7% (inactive) | inhibition (Ca+ Channel): -19.4% (inactive) | inhibition [22]: 1.1% (inactive) | inhibition (GABA receptor GABAa a1): 16.2% (inactive) | inhibition (Nicotinic receptor A2B2): -4% (inactive) | inhibition (Serotonin receptor 5ht1e): 13.1% (inactive) | inhibition (Muscarinic receptor M5): 2.3% (inactive) | inhibition (GABA receptor GABAa): 25% (inactive) | inhibition (Opioid receptor MOR): -18% (inactive) | inhibition [23]: 45.5% (inactive) | inhibition (Serotonin receptor 5ht1d): 16.1% (inactive) | inhibition [24]: 16.3% (inactive) | inhibition [25]: 38.3% (inactive) | inhibition (Histamine receptor H3): -2.4% (inactive) | inhibition (Histamine receptor H1): 46.4% (inactive) | inhibition [26]: 22.4% (inactive) | inhibition (Serotonin receptor 5ht1b): 11.3% (inactive)
Compound: CN1c2ccccc2Sc2cc(N)ccc21
